Columns and labels:
[1] = test system: poly(dA)–poly(dT) (DNA, polymer) A/T; test: UV-vis titration, Scatchard fit; conditions: Na+ (sodium cacodylate, I = 0.05 M); pH 5, 25 °C; n fixed at 0.2; polynucleotide concentration in phosphates; per base
[2] = test system: poly(rA)–poly(rU) (RNA, polymer) A/U; test: ITC, single set of sites fit; conditions: Na+ (sodium cacodylate, I = 0.05 M); pH 5, 25 °C; polynucleotide concentration in phosphates; per base
[3] = test system: poly(rA)–poly(rU) (RNA, polymer) A/U; test: UV thermal denaturation, 260 nm; conditions: Na+ (sodium cacodylate, I = 0.05 M); pH 5; r = [4]/[polynucleotide] = 0.2; per base
[4] = test system: poly(dA)–poly(dT) (DNA, polymer) A/T; test: UV thermal denaturation, 260 nm; conditions: Na+ (sodium cacodylate, I = 0.05 M); pH 5; r = [4]/[polynucleotide] = 0.1; per base
[5] = test system: poly(dGdC)2 (DNA, polymer) GC; test: UV-vis titration, Scatchard fit; conditions: Na+ (sodium cacodylate, I = 0.05 M); pH 5, 25 °C; n fixed at 0.2; polynucleotide concentration in phosphates; per base
[6] = test system: poly(dAdT)2 (DNA, polymer) AT; test: ITC, two sets of sites fit; conditions: Na+ (sodium cacodylate, I = 0.05 M); pH 5, 25 °C; site 1 of 2; polynucleotide concentration in phosphates; per base
[7] = test system: poly(dAdT)2 (DNA, polymer) AT; test: UV thermal denaturation, 260 nm; conditions: Na+ (sodium cacodylate, I = 0.05 M); pH 5; r = [4]/[polynucleotide] = 0.1; per base
[8] = test system: poly(dAdT)2 (DNA, polymer) AT; test: UV-vis titration, Scatchard fit; conditions: Na+ (sodium cacodylate, I = 0.05 M); pH 5, 25 °C; n fixed at 0.2; polynucleotide concentration in phosphates; per base
[9] = test system: poly(rA)–poly(rU) (RNA, polymer) A/U; test: UV-vis titration, Scatchard fit; conditions: Na+ (sodium cacodylate, I = 0.05 M); pH 7, 25 °C; n fixed at 0.2; concentration in phosphates; log Ka 6.0 at pH 5; per base

**Q.** For N=C(N)NC(=O)c1ccc(C(=O)NCCCC[C@H](N)C(=O)NCCN2C(=O)c3ccc4c5c(ccc(c35)C2=O)C(=O)N(CCNC(=O)[C@@H](N)CCCCNC(=O)c2ccc(C(=O)NC(=N)N)[nH]2)C4=O)[nH]1, which “log Ka” value [1] is on record?
**A.** Its value is 6.4.

**Q.** What about the “log Ka1” value [2] of the same compound?
**A.** The value was 6.9.

**Q.** And the “∆Tm” value [3]?
**A.** The value was 6.8 ± 0.5 °C.

**Q.** And the “∆Tm” value [4]?
**A.** Its value is 10.5 ± 0.5 °C.

**Q.** And the “log Ka” value [5]?
**A.** Its value is 7.2.

**Q.** What about the “log Ka1” value [6] of the same compound?
**A.** Its value is 6.7.

**Q.** And the “∆Tm” value [7]?
**A.** The value was 10.0 ± 0.5 °C.

**Q.** And the “log Ka” value [8]?
**A.** The value was 5.8.

**Q.** What about the “log Ka” value [9] of the same compound?
**A.** Its value is 4.5.

From article PMC7492691 (2020)
